According to ChEMBL document CHEMBL1201862, “PubChem BioAssay data set” (2004):
The source made the active and inactive calls.

Key:
[1] = target: DNA dC->dU-editing enzyme APOBEC-3G (Homo sapiens, UniProt Q9HC16); assay: Dose Response confirmation of small molecule APOBEC3G DNA Deaminase Inhibitors via a fluorescence-based single-stranded DNA deaminase assay. [Related pubchem assays (depositor defined):AID493012, AID493028]; format: functional
[2] = target: DNA dC->dU-editing enzyme APOBEC-3A (Homo sapiens, UniProt P31941); assay: A3A deaminase inhibition for selectivity – biochemical, dose response (AID 504722); format: functional
Hexokinase-1 = Hexokinase-1 (Homo sapiens, UniProt P19367); assay: HK1 enzyme activation by HKDC1 hits – biochemical, selectivity assay for HKDC1 activator project, dose response (AID 504762); format: functional
[3] = HGIII-sPLA2 enzyme inhibition potency – biochemical, QFRET, IC50, dose response (AID 743457);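 note: green fluorescence rise as the enzyme cleaves BODIPY PC-A2 in liposomes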
Hexokinase HKDC1 = Hexokinase HKDC1 (Homo sapiens, UniProt Q2TB90); assay: activation of HKDC1 glucose phosphorylation – biochemical, W721R variant, dose response (AID 504730); format: functional
[4] = target: Glucose-6-phosphate 1-dehydrogenase (Homo sapiens, UniProt P11413); assay: inhibition of Homo sapiens G6PD, dose series – biochemical, fluorescence, selectivity assay for P. falciparum G6PD inhibitor project, dose response (AID 504792); format: functional
Genome polyprotein = Genome polyprotein (dengue virus type 2, UniProt P29990); assay: flavivirus cap methylation enzyme inhibition – biochemical, confirmation dose response, primary screen (AID 588689); format: functional
[5] = target: Dual specificity tyrosine-phosphorylation-regulated kinase 1A (Rattus norvegicus, UniProt Q63470); format: biochemical, Homo sapiens
[6] = fluconazole-exposed Candida albicans growth modulators – fluorescence, retest, confirmation (AID 2467); format: functional, cell-based
[7] = target: ATP-dependent molecular chaperone HSP82 (Candida albicans (strain WO-1) (Yeast), UniProt C4YTQ8); assay: steroid-induced GRE reporter decrease in yeast – S. cerevisiae, luminescence, Hsp90 inhibitor project, dose response (AID 2400); format: functional, cell-based;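 note: beta-galactosidase luminescence from glucocorticoid response element reporter as proxy for Hsp90 function; inhibitor potency where signal loss means Hsp90 inhibition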
[8] = NIH-3T3 fibroblast cytotoxicity, dose response, cytotoxicity control, cell-based, fluorescence, Alamar Blue, secondary assay (AID 2327); format: functional;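 note: NIH-3T3 mouse fibroblasts cultured with fluconazole at 8 µg/mL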
[9] = target: Serine/threonine-protein phosphatase (Candida dubliniensis (strain CD36 / CBS 7987 / NCPF 3949 / NRRLY-17841) (Yeast), UniProt B9W6M3); assay: blockers of CaCl2-induced CDRE-lacZ signaling – S. cerevisiae, luminescence, secondary, dose response (AID 2388); format: functional, cell-based;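 note: yeast reporter cells carrying a calcineurin-responsive lacZ construct stimulated with calcium chloride; luminescent beta-galactosidase reporter signal in whole cells rather than isolated phosphatase activity; potency for inhibition where a drop in reporter signal means calcineurin blockade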
[10] = target: Latent membrane protein 1 (Human herpesvirus 4 (strain B95-8), UniProt P03230); assay: LMP1 TES1 pathway selectivity over dsRED control – imaging, HEK293T, dual-color eGFP/dsRED, cherry-picks, selectivity assay for LMP1 NF-kB inhibitor project, dose response (AID 588398); format: functional, cell-based
[11] = THP-1 cell cytotoxicity, dose response, cytotoxicity control for non-replicating M. tuberculosis project (AID 489025); format: functional
[12] = target: T1, Heat shock factor protein 1 (Mus musculus, UniProt P38532); assay: enhancement of HSF1-driven luciferase signal – cell-based, NIH3T3, luminescence, dose retest, confirmation (AID 435004); format: functional;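 note: stress induced by proteasome inhibitor MG132 added 30 min after compound; luciferase reporter driven by HSF1 response element in NIH3T3 cells; actives raise luminescence as potentiators of the MG132 stress response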
T1 sequence (P38532 whole entry): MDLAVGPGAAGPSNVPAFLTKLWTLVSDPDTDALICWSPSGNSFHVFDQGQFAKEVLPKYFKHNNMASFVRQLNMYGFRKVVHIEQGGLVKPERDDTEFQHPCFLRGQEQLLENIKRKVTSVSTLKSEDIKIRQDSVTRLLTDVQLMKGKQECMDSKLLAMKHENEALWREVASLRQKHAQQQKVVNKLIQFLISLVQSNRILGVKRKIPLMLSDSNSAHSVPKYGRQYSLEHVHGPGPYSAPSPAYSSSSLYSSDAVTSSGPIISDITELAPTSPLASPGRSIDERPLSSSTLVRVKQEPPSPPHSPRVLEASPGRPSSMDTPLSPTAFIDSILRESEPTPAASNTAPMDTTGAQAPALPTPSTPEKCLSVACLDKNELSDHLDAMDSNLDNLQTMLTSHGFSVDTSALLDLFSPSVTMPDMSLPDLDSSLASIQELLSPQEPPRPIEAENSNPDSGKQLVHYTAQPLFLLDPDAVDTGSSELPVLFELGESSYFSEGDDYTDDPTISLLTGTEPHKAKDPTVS

[13] = Vero E6 cell cytotoxicity, dose response, cytotoxicity control for non-replicating M. tuberculosis project, secondary assay (AID 492998); format: functional, VeroE6; conditions: Vero C1008
CHO = CHO cell viability loss, potency – luminescence, cytotoxicity control for TLR9-MyD88 binding inhibitor project, dose response (AID 588339); format: functional, cell-based, hamster; conditions: Cricetulus griseus;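 note: CHO cells stably coexpressing TLR9 and MyD88 fusions from primary screen; compound exposure lasted 48 hours before viability readout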
[14] = Luminescence Cell-Based Dose Retest to Confirm Inhibitors of Cancer Stem Cells. [Related pubchem assays (depositor defined):AID2717, AID2721]; format: functional; conditions: Homo sapiens
[15] = target: Heat shock protein HSP 90-alpha (Homo sapiens, UniProt P07900); format: functional, organism-based
[16] = Fluorescence-based cell-based high throughput dose response assay for inhibitors of the interaction of nucleotide-binding oligomerization domain containing 2 (NOD2) and the receptor-interacting serine-threonine kinase 2 (RIPK2).; format: functional; conditions: Homo sapiens
cells = format: functional
Beta Lactamase = Beta Lactamase (Pseudomonas aeruginosa, UniProt Q932Y6); assay: BLA reporter interference, concentration series – BLA reporter cells, FRET fluorescence, artefact control for TLR9-MyD88 binding inhibitor project, dose response (AID 588341); format: cell-based;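 note: cell based assay in CHO-K1 cells stably expressing beta-lactamase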
[17] = Trypanosoma cruzi growth suppression in host cells – NIH3T3 host cells, beta-gal luminescence, confirmation (AID 2044); format: functional, cell-based;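 note: intracellular parasites grown in NIH/3T3 mouse fibroblasts as host cells; luminescent beta-galactosidase reporter signal from transgenic T. cruzi replicating inside host cells; inhibitors lower the luminescence signal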
[18] = NIH3T3 cell viability loss – ATP luminescence, mouse fibroblasts, counter-screen, dose response (AID 2010); format: functional, cell-based;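 note: cells exposed to compound for about 90 hours before reading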
INS1 = assay: INS-1E survival protection against cytokine death – cell-based, luminescence, retest, dose response (AID 449756); format: functional; conditions: Rattus norvegicus;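 note: cell death triggered by IL-1 beta plus TNF-alpha plus IFN-gamma mixture; protective hits raise ATP signal compared with cytokine alone wells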
HEK293 = assay: EBV LMP1 TES2 canonical NF-kB signalling blockers – cell-based, HEK293, luciferase, cherry-pick, dose response (AID 588343); format: functional; conditions: Homo sapiens
[19] = target: T2, Endoribonuclease toxin MazF (Escherichia coli K-12, UniProt P0AE70); assay: substrate-only fluorescence increase artefacts – biochemical, single-stranded RNase substrate, counter-screen for MazEF activator project, dose response (AID 588502); format: functional
T2 sequence (P0AE70 whole entry): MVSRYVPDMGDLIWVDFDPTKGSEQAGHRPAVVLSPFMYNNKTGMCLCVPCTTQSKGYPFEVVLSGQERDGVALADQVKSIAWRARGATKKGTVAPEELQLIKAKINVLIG

[20] = target: T2, Endoribonuclease toxin MazF; assay: activation of MazEF endoribonuclease cleavage – biochemical, fluorescence, single-stranded RNA substrate, uHTS hits, dose response (AID 588481); format: functional
A-375 [21] = assay: proliferation inhibition in MITF-low A375 cells – cell-based, cherry-pick samples, set 2, counter-screen for MITF modulator project, dose response (AID 540335); format: functional; conditions: Homo sapiens
HeLa = assay: ATP-based viability loss in HeLa cells – cell-based, CellTiter-Glo luminescence, cherry-pick samples, cytotoxicity control for MITF activator project, dose response (AID 540259); format: functional; conditions: Homo sapiens
A-375 [22] = assay: MITF: Counter assay: A375 proliferation Measured in Cell-Based System Using Plate Reader - 2084-03_Inhibitor_Dose_DryPowder_Activity. [Related pubchem assays (depositor defined):AID488944]; format: functional; conditions: Homo sapiens
[23] = target: T3, RNA-binding protein pos-1 (Caenorhabditis elegans, UniProt G5EF15); assay: disruptors of C. elegans POS-1 RNA interaction – biochemical, fluorescence polarization, dose response (AID 1964);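 note: purified POS-1 fused to maltose binding protein made in E. coli; potency of compounds blocking POS-1 binding to fluorescent RNA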
T3 sequence (G5EF15 whole entry): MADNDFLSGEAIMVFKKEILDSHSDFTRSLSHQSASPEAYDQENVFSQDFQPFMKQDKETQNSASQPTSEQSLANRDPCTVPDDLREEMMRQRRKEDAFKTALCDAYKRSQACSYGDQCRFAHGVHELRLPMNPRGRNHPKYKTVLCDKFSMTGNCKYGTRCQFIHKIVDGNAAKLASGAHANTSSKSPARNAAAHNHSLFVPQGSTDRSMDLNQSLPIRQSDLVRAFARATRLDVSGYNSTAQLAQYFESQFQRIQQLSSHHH

[24] = target: T4, Zinc finger protein mex-5 (Caenorhabditis elegans, UniProt Q9XUB2); assay: potency of MEX-5 RNA-binding blockers – biochemical, C. elegans, fluorescence polarization, dose response (AID 1960)
T4 sequence (Q9XUB2 whole entry): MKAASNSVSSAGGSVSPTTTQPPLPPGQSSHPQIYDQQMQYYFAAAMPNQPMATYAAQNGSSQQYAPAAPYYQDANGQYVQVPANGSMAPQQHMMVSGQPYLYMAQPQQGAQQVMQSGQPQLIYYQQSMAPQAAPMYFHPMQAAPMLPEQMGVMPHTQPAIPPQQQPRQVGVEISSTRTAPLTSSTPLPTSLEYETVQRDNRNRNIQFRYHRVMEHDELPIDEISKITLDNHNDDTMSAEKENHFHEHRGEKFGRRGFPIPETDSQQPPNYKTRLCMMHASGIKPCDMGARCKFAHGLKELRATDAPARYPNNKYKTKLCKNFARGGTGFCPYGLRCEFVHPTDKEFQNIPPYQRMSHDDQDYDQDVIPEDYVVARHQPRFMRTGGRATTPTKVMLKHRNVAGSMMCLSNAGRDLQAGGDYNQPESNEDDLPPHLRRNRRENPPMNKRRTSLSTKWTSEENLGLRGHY

Caspase-6 = target: T5, Caspase-6 (Homo sapiens, UniProt P55212); assay: inhibition of CASP6 peptide cleavage – biochemical, VEID-R110 fluorescence, cherry-pick, dose response (AID 720632)
T5 sequence (P55212 whole entry): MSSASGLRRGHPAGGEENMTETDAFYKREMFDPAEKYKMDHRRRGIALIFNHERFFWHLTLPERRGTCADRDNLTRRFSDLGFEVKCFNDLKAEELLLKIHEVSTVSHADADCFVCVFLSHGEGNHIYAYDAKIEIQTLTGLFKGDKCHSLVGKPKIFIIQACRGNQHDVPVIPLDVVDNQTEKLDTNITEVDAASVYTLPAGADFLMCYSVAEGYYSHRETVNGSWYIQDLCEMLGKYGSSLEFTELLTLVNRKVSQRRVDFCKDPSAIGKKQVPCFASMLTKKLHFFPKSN

Chain of Serine/threonine-protein phosphatase (B9W6M3 whole entry): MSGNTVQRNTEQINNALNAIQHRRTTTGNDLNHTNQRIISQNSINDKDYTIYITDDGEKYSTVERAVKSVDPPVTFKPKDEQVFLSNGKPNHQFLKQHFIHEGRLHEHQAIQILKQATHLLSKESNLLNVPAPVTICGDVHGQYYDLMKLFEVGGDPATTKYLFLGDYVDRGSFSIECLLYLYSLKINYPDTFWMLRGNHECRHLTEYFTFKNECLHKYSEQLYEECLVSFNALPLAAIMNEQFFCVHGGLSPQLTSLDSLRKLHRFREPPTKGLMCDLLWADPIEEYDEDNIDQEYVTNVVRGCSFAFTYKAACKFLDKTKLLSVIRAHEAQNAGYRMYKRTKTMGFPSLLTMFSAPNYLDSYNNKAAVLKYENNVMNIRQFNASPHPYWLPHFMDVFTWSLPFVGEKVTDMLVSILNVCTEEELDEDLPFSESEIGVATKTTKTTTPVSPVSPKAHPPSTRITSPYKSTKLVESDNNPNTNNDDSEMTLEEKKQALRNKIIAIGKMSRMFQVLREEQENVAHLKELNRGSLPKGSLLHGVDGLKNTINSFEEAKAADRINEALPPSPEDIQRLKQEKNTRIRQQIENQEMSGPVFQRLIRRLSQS
Chain of Latent membrane protein 1 (P03230 whole entry): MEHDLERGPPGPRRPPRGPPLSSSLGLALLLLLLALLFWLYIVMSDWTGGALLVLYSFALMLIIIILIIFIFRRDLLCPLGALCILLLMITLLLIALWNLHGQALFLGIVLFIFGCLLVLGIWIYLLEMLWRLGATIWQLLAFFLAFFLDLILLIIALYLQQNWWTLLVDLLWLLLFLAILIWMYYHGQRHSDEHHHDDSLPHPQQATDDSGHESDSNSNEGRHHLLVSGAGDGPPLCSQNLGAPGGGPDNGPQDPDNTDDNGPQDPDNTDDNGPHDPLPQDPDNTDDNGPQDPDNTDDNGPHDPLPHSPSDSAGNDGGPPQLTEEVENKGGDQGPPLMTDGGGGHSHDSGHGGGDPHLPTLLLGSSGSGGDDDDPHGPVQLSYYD
Chain of Beta Lactamase (Q932Y6 whole entry): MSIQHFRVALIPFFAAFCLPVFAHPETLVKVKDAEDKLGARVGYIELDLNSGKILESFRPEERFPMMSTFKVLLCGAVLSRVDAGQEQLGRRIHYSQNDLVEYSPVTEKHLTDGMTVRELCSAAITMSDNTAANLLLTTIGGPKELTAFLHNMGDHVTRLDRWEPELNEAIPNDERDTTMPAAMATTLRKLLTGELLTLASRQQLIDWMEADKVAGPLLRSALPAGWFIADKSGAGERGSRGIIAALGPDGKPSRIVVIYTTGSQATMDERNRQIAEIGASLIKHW
Chain of ATP-dependent molecular chaperone HSP82 (C4YTQ8 whole entry): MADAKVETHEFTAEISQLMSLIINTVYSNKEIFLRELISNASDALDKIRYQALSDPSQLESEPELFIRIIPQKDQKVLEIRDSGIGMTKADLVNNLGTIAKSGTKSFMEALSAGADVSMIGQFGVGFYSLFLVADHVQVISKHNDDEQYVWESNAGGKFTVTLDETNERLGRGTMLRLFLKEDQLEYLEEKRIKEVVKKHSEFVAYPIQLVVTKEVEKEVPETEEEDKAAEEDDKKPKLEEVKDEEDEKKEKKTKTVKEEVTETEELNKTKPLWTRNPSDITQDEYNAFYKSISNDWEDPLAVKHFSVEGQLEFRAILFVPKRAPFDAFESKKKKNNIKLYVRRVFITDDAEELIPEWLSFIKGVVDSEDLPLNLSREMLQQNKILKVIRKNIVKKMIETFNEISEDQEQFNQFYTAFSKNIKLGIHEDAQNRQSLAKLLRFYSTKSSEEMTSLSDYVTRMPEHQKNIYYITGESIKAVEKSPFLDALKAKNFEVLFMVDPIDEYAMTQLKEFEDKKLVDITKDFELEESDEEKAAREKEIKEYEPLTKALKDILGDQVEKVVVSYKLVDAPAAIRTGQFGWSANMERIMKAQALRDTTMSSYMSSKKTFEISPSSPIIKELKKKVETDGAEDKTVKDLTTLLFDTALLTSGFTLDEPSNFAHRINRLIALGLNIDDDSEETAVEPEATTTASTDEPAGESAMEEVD
Chain of Glucose-6-phosphate 1-dehydrogenase (P11413 whole entry): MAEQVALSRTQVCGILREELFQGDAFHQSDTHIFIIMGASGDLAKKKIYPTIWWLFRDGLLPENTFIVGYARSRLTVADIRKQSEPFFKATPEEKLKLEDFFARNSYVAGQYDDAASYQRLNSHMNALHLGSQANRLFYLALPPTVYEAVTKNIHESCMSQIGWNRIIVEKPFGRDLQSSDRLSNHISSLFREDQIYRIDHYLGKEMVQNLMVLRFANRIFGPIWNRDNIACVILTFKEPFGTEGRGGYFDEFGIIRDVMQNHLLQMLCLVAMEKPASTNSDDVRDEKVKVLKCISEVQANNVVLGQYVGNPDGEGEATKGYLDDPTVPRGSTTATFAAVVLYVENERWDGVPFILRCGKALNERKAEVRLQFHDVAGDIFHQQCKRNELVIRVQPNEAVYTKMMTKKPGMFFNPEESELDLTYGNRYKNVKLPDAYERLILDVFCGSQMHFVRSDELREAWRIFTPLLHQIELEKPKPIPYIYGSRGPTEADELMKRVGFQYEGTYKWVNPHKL
Chain of Genome polyprotein (P29990 2492-3391 limits assumed): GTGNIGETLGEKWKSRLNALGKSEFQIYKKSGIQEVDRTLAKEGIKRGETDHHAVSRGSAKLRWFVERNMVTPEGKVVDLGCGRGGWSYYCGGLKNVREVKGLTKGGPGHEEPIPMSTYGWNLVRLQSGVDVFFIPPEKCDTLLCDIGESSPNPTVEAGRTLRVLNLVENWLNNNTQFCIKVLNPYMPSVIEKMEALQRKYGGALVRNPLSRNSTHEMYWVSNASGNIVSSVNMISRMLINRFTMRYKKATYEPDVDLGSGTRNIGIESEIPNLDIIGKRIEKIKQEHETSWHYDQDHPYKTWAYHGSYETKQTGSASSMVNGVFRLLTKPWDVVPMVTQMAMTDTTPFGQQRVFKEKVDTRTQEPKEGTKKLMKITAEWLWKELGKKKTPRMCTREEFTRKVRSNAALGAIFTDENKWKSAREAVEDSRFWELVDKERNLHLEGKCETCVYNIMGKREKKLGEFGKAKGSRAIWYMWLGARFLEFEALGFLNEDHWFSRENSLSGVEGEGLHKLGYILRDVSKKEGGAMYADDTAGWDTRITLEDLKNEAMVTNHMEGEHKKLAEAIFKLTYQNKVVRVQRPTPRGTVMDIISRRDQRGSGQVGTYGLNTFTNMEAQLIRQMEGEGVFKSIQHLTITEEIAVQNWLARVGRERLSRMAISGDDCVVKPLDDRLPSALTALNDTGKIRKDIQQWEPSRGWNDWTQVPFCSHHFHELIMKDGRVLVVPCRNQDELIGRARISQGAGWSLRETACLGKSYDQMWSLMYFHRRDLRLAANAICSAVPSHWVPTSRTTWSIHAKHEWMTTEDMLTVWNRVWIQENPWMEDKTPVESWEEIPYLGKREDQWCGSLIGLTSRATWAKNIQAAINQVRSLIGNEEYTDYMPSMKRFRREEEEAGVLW
Chain of Hexokinase HKDC1 (Q2TB90 whole entry): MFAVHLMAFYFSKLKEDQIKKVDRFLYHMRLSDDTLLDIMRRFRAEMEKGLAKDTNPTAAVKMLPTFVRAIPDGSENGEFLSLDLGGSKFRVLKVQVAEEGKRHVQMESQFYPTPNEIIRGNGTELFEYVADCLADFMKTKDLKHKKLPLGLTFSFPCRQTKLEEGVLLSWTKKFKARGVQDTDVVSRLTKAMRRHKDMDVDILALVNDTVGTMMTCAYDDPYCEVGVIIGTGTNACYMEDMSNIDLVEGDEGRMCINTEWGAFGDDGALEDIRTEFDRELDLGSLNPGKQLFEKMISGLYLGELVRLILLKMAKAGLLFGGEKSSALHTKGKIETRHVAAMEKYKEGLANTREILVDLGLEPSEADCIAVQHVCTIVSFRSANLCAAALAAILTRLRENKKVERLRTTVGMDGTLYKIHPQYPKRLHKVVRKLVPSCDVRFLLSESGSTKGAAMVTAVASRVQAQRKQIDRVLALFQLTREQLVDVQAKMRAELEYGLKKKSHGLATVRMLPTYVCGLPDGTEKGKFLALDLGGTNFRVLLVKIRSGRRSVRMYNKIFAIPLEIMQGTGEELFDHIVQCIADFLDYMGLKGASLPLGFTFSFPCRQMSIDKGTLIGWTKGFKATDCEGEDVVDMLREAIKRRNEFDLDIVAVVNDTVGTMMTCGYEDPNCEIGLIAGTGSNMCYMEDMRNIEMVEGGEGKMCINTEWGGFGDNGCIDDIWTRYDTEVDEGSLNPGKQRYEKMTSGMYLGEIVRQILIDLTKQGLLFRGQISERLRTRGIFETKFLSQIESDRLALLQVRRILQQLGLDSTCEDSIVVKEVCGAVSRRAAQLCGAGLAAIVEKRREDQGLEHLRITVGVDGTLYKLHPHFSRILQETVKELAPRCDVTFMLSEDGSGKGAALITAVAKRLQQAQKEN
Chain of DNA dC->dU-editing enzyme APOBEC-3A (P31941 whole entry): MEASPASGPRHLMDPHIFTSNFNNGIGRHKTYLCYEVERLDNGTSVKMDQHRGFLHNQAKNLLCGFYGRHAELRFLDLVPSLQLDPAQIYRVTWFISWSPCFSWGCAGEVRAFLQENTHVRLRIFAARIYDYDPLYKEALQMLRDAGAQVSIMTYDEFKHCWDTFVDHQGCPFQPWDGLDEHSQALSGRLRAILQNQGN
Chain of DNA dC->dU-editing enzyme APOBEC-3G (Q9HC16 whole entry): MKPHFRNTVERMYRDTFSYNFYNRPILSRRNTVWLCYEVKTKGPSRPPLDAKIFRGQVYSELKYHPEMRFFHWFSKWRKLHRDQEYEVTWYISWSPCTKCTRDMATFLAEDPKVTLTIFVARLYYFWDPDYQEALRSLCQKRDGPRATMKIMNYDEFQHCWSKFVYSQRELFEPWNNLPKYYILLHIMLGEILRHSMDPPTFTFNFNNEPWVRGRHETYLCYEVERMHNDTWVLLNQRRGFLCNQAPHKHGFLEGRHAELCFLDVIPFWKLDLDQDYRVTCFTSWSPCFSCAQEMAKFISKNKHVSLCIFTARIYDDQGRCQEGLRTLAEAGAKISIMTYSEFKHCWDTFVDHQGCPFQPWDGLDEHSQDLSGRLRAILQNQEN

COc1cc(N=c2ssnc2Cl)c(OC)cc1Cl
IC50 [1]: 8.83 µM (active) | IC50 [2]: > 100 µM (inactive) | EC50 (Hexokinase-1): 41.9 µM (inactive) | IC50 [3]: 92.1 µM (inactive) | EC50 (Hexokinase HKDC1): 27.2 µM (inactive) | IC50 [4]: 68.8 µM (inactive) | IC50 (Genome polyprotein): > 100 µM (active)

Cc1nc2c(ccc3nc(NC(=O)Cc4ccccc4)sc32)s1
AC50 [5]: 0.73 µM (active)

O=C(Nc1cccc(-c2cn3ccccc3n2)c1)c1cccc(Cl)c1
EC50 [6]: 1.05 µM (active) | EC50 [7]: > 160 µM (inactive) | EC50 [8]: 11 µM (active) | EC50 [9]: > 180 µM (inactive)

COCCCNCC1C(Oc2ccc(Cl)cc2)C(=O)N1c1ccccc1C (configuration not stated)
AC50 [10]: 28.2 µM (active)

C=CCN1C(=O)/C(=C2/C(=O)Nc3ccccc32)c2ccccc21
CC50 [11]: 19.7 µM (active) | EC50 [12]: 8.91 µM (active) | CC50 [13]: 3.31 µM (active) | IC50 (CHO): 3.64 µM (active) | AC50 [14]: 4.32 µM (active) | AC50 [15]: 1.17 µM (active) | IC50 [16]: 2.1 µM (active) | IC50 (cells): 0.4 µM (active) | IC50 (Beta Lactamase): > 49.8 µM (inactive)

CCCCCCOC(=O)C[N+](C)(C)CCOC1CC2CCC1(C)C2(C)C (configuration not stated)
EC50 [6]: 0.456 µM (active) | EC50 [7]: 30.6 µM (active) | EC50 [8]: 23.6 µM (active) | EC50 [17]: 0.178 µM (active) | EC50 [18]: > 30 µM (not active) | AC50 (INS1): 4.16 µM (active) | EC50 [9]: > 180 µM (inactive)

Nc1nc2ccccc2n1C(=O)c1ccccc1
AC50 [10]: 108 µM (active) | AC50 (HEK293): 5.38 µM (active)

CCN(CC)c1ccc(C=NNc2ccc([N+](=O)[O-])cn2)cc1
IC50 (CHO): 24.3 µM (inactive) | EC50 [19]: 70.2 µM (inactive) | EC50 [20]: > 99 µM (inactive) | IC50 (Beta Lactamase): 4.5 µM (active)

COC(=O)c1c(C)[nH]c(/C=N/Nc2ccccc2)c1C
AC50 (A-375 [21]): > 35 µM (active) | AC50 (HeLa): 103 µM (active) | AC50 (A-375 [22]): > 35 µM (active)

Cc1cc(/C=N/Nc2ccc([N+](=O)[O-])cn2)c(C)n1-c1cccc(C(=O)O)c1
EC50 [23]: > 300 µM (not active) | EC50 [24]: 37.7 µM (active) | AC50 [5]: 8.79 µM (active) | AC50 (Caspase-6): 14.4 µM (active)
